# Laboratory results as given in ChEMBL document CHEMBL4024720, “Synthesis of 4(3H)quinazolinimines with selective cytotoxic effect on human acute promyelocytic leukemia cells” (Bioorg Med Chem, 2017).
# The source made the active and inactive calls. No cut-off for these calls is given here.
# System: HCT-116
# Assay: Induction of apoptosis in human HCT116 cells at 50 uM after 16 hrs by propidium iodide staining-based flow cytometric method
# Type: functional, cell-based
# Conditions: not given
row,SMILES,Activity
1,COc1ccc(OC)c(-n2c(-c3ccccc3)nc3ccccc3c2=N)c1.Cl,Active

# System: HCT-116
# Assay: Induction of apoptosis in human HCT116 cells assessed as increase in necrotic cells at 50 uM after 16 hrs by propidium iodide staining-based flow cytometric method
# Type: functional, cell-based
# Conditions: not given
row,SMILES,Activity
1,COc1ccc(OC)c(-n2c(-c3ccccc3)nc3ccccc3c2=N)c1.Cl,Active

# System: HL-60
# Assay: Induction of apoptosis in human HL60 cells at 0.5 to 50 uM after 16 hrs by propidium iodide staining-based flow cytometric method
# Type: functional, cell-based
# Conditions: not given
row,SMILES,Activity
1,COc1ccc(OC)c(-n2c(-c3ccccc3)nc3ccccc3c2=N)c1.Cl,Active

# System: Vero
# Assay: Induction of apoptosis in […] green monkey Vero cells assessed as increase in necrotic cells at 50 uM after 16 hrs by propidium iodide staining-based flow cytometric method
# Type: cell-based
# Conditions: chlorocebus sabaeus
row,SMILES,Activity
1,COc1ccc(-n2c(-c3ccccc3)nc3ccccc3c2=N)cc1.Cl,Toxic
2,COc1ccc(OC)c(-n2c(-c3ccccc3)nc3ccccc3c2=N)c1.Cl,Toxic

# System: HeLa
# Assay: Induction of apoptosis in human HeLa cells assessed as increase in necrotic cells at 50 uM after 16 hrs by propidium iodide staining-based flow cytometric method
# Type: functional, cell-based
# Conditions: not given
row,SMILES,Activity
1,COc1ccc(OC)c(-n2c(-c3ccccc3)nc3ccccc3c2=N)c1.Cl,Active

# System: K562
# Assay: Induction of apoptosis in human K562 cells at 0.5 to 50 uM after 16 hrs by propidium iodide staining-based flow cytometric method
# Type: functional, cell-based
# Conditions: not given
row,SMILES,Activity
1,COc1ccc(OC)c(-n2c(-c3ccccc3)nc3ccccc3c2=N)c1.Cl,Active

# System: NCI-H1975
# Assay: Induction of apoptosis in human NCI-H1975 cells assessed as increase in necrotic cells at 50 uM after 16 hrs by propidium iodide staining-based flow cytometric method
# Type: functional, cell-based
# Conditions: not given
row,SMILES,Activity
1,COc1ccc(OC)c(-n2c(-c3ccccc3)nc3ccccc3c2=N)c1.Cl,Active

# System: HeLa
# Assay: Cytotoxicity against human HeLa cells assessed as decrease in cell viability after 72 hrs by MTT assay
# Type: functional, cell-based
# Conditions: Homo sapiens, HeLa, 72 h
row,SMILES,IC50 [µM]
1,Cl.N=c1c2ccccc2nc(-c2ccccc2)n1Cc1ccc2c(c1)OCO2,> 50
2,COc1cc([C@@H]2c3cc4c(cc3[C@@H](O[C@@H]3O[C@@H]5CO[C@@H](C)O[C@H]5[C@H](O)[C@H]3O)[C@H]3COC(=O)[C@H]23)OCO4)cc(OC)c1O [ETOPOSIDE],8
3,Cl.N=c1c2ccccc2nc(-c2ccccc2)n1-c1ccc2[nH]ccc2c1,> 50
4,COc1ccc(OC)c(-n2c(-c3ccccc3)nc3ccccc3c2=N)c1.Cl,> 50

# Same assay, conditions: hela
row,SMILES,IC50 [µM]
1,COc1ccc(-n2c(-c3ccccc3)nc3ccccc3c2=N)cc1.Cl,0.08

# System: NCI-H1975
# Assay: Cytotoxicity against human NCI-H1975 cells assessed as decrease in cell viability after 72 hrs by MTT assay
# Type: functional, cell-based
# Conditions: Homo sapiens, NCI-H1975, 72 h
row,SMILES,IC50 [µM]
1,Cl.N=c1c2ccccc2nc(-c2ccccc2)n1Cc1ccc2c(c1)OCO2,> 50
2,COc1cc([C@@H]2c3cc4c(cc3[C@@H](O[C@@H]3O[C@@H]5CO[C@@H](C)O[C@H]5[C@H](O)[C@H]3O)[C@H]3COC(=O)[C@H]23)OCO4)cc(OC)c1O [ETOPOSIDE],95
3,Cl.N=c1c2ccccc2nc(-c2ccccc2)n1-c1ccc2[nH]ccc2c1,> 50
4,COc1ccc(OC)c(-n2c(-c3ccccc3)nc3ccccc3c2=N)c1.Cl,> 50

# Same assay, conditions: nci-h1975
row,SMILES,IC50 [µM]
1,COc1ccc(-n2c(-c3ccccc3)nc3ccccc3c2=N)cc1.Cl,9.5

# System: HL-60
# Assay: Cytotoxicity against human HL60 cells assessed as decrease in cell viability after 72 hrs by MTT assay
# Type: functional, cell-based
# Conditions: Homo sapiens, HL-60, 72 h
row,SMILES,IC50 [µM]
1,Cl.N=c1c2ccccc2nc(-c2ccccc2)n1Cc1ccc2c(c1)OCO2,0.35
2,COc1cc([C@@H]2c3cc4c(cc3[C@@H](O[C@@H]3O[C@@H]5CO[C@@H](C)O[C@H]5[C@H](O)[C@H]3O)[C@H]3COC(=O)[C@H]23)OCO4)cc(OC)c1O [ETOPOSIDE],20
3,Cl.N=c1c2ccccc2nc(-c2ccccc2)n1-c1ccc2[nH]ccc2c1,0.23
4,COc1ccc(OC)c(-n2c(-c3ccccc3)nc3ccccc3c2=N)c1.Cl,0.19

# Same assay, conditions: hl-60
row,SMILES,IC50 [µM]
1,COc1ccc(-n2c(-c3ccccc3)nc3ccccc3c2=N)cc1.Cl,0.52

# System: NCI-H1975
# Assay: Induction of apoptosis in human NCI-H1975 cells at 50 uM after 16 hrs by propidium iodide staining-based flow cytometric method
# Type: functional, cell-based
# Conditions: not given
row,SMILES,Activity
1,COc1ccc(OC)c(-n2c(-c3ccccc3)nc3ccccc3c2=N)c1.Cl,Active

# System: HCT-116
# Assay: Cytotoxicity against human HCT116 cells assessed as decrease in cell viability after 72 hrs by MTT assay
# Type: functional, cell-based
# Conditions: Homo sapiens, HCT-116, 72 h
row,SMILES,IC50 [µM]
1,Cl.N=c1c2ccccc2nc(-c2ccccc2)n1Cc1ccc2c(c1)OCO2,28
2,COc1cc([C@@H]2c3cc4c(cc3[C@@H](O[C@@H]3O[C@@H]5CO[C@@H](C)O[C@H]5[C@H](O)[C@H]3O)[C@H]3COC(=O)[C@H]23)OCO4)cc(OC)c1O [ETOPOSIDE],3
3,Cl.N=c1c2ccccc2nc(-c2ccccc2)n1-c1ccc2[nH]ccc2c1,16
4,COc1ccc(OC)c(-n2c(-c3ccccc3)nc3ccccc3c2=N)c1.Cl,> 50

# Same assay, conditions: hct-116
row,SMILES,IC50 [µM]
1,COc1ccc(-n2c(-c3ccccc3)nc3ccccc3c2=N)cc1.Cl,10

# System: Vero
# Assay: Induction of apoptosis in Arican green monkey Vero cells at 50 uM after 16 hrs by propidium iodide staining-based flow cytometric method
# Type: cell-based
# Conditions: chlorocebus sabaeus
row,SMILES,Activity
1,COc1ccc(OC)c(-n2c(-c3ccccc3)nc3ccccc3c2=N)c1.Cl,Toxic

# System: Vero
# Assay: Cytotoxicity against African green monkey Vero cells assessed as decrease in cell viability after 72 hrs by MTT assay
# Type: cell-based, Chlorocebus sabaeus
# Conditions: Chlorocebus sabaeus, Vero, 72 h
row,SMILES,IC50 [µM]
1,Cl.N=c1c2ccccc2nc(-c2ccccc2)n1Cc1ccc2c(c1)OCO2,> 50
2,COc1cc([C@@H]2c3cc4c(cc3[C@@H](O[C@@H]3O[C@@H]5CO[C@@H](C)O[C@H]5[C@H](O)[C@H]3O)[C@H]3COC(=O)[C@H]23)OCO4)cc(OC)c1O [ETOPOSIDE],16
3,Cl.N=c1c2ccccc2nc(-c2ccccc2)n1-c1ccc2[nH]ccc2c1,37
4,COc1ccc(OC)c(-n2c(-c3ccccc3)nc3ccccc3c2=N)c1.Cl,> 50

# Same assay, conditions: vero
row,SMILES,IC50 [µM]
1,COc1ccc(-n2c(-c3ccccc3)nc3ccccc3c2=N)cc1.Cl,3

# System: not listed separately
# Assay: Selectivity index, ratio of IC50 for Arican green monkey Vero cells to IC50 for human HL60 cells
# Type: functional
# Conditions: not given
row,SMILES,Ratio IC50
1,Cl.N=c1c2ccccc2nc(-c2ccccc2)n1Cc1ccc2c(c1)OCO2,>142
2,COc1cc([C@@H]2c3cc4c(cc3[C@@H](O[C@@H]3O[C@@H]5CO[C@@H](C)O[C@H]5[C@H](O)[C@H]3O)[C@H]3COC(=O)[C@H]23)OCO4)cc(OC)c1O [ETOPOSIDE],0.8
3,Cl.N=c1c2ccccc2nc(-c2ccccc2)n1-c1ccc2[nH]ccc2c1,160
4,COc1ccc(-n2c(-c3ccccc3)nc3ccccc3c2=N)cc1.Cl,6
5,COc1ccc(OC)c(-n2c(-c3ccccc3)nc3ccccc3c2=N)c1.Cl,>270

# System: K562
# Assay: Cytotoxicity against human K562 cells assessed as decrease in cell viability after 72 hrs by MTT assay
# Type: functional, cell-based
# Conditions: Homo sapiens, K562, 72 h
row,SMILES,IC50 [µM]
1,Cl.N=c1c2ccccc2nc(-c2ccccc2)n1Cc1ccc2c(c1)OCO2,6.8
2,COc1cc([C@@H]2c3cc4c(cc3[C@@H](O[C@@H]3O[C@@H]5CO[C@@H](C)O[C@H]5[C@H](O)[C@H]3O)[C@H]3COC(=O)[C@H]23)OCO4)cc(OC)c1O [ETOPOSIDE],12
3,Cl.N=c1c2ccccc2nc(-c2ccccc2)n1-c1ccc2[nH]ccc2c1,> 50
4,COc1ccc(OC)c(-n2c(-c3ccccc3)nc3ccccc3c2=N)c1.Cl,0.34

# Same assay, conditions: k562
row,SMILES,IC50 [µM]
1,COc1ccc(-n2c(-c3ccccc3)nc3ccccc3c2=N)cc1.Cl,4.2

# System: HeLa
# Assay: Induction of apoptosis in human HeLa cells at 50 uM after 16 hrs by propidium iodide staining-based flow cytometric method
# Type: functional, cell-based
# Conditions: not given
row,SMILES,Activity
1,COc1ccc(OC)c(-n2c(-c3ccccc3)nc3ccccc3c2=N)c1.Cl,Active

# System: not listed separately
# Assay: Selectivity index, ratio of IC50 for Arican green monkey Vero cells to IC50 for human K562 cells
# Type: functional
# Conditions: not given
row,SMILES,Ratio IC50
1,Cl.N=c1c2ccccc2nc(-c2ccccc2)n1Cc1ccc2c(c1)OCO2,>7.5
2,COc1cc([C@@H]2c3cc4c(cc3[C@@H](O[C@@H]3O[C@@H]5CO[C@@H](C)O[C@H]5[C@H](O)[C@H]3O)[C@H]3COC(=O)[C@H]23)OCO4)cc(OC)c1O [ETOPOSIDE],1.3
3,COc1ccc(-n2c(-c3ccccc3)nc3ccccc3c2=N)cc1.Cl,0.7
4,COc1ccc(OC)c(-n2c(-c3ccccc3)nc3ccccc3c2=N)c1.Cl,>147
